Measurements: patent US20140120180A1, “METAL COMPOUNDS MIXED OR SULPHATED, AS PHOSPHATE BINDERS” (CYTOCHROMA DEVELOPMENT INC., priority 1997, published 2014)
Where “and” joins values, the source holds several entries; their conditions need not be identical. Equal values may be shown once.

Columns and labels:
[1] = Urine and faecal phosphate excretion in rats fed binder in diet; conditions: rat, in vivo
[2] = Measurement of phosphate binding M4: 1 g in 25 ml 40 mmol l^-1 phosphate buffer, pH 3-8 (Examples 3 and 4)
[3] = rat, in vivo
[4] = Phosphate binding capacity, 3.2 mmol compound in 25 ml 20 mmol l^-1 phosphate buffer (Example 1)
Protocol: In Table 1, the values indicate respective percentage phosphate binding capacity at each of pH3, pH7 and pH8, n indicating the number of trials made for each compound.
The phosphate binding capacity was measured by mixing 3.2 mmol of the compound with 25 ml of 20 mmol l^−1 phosphate buffer for 30 min at 25° C. For all compounds except CT2000, which compounds were dry powders, the compounds were merely weighed and dosed. For CT2000, the slurry was dosed in an amount such as to give an equivalent of 1 g of a powder dried to constant weight at 40° C. Sodium phosphate and sodium hydrogen phosphate were mixed to provide respective phosphate solutions at pH3, 7 and 8 (HCl being added to provide pH3). […] The results are shown in Table 1, in which n refers to the number of observations and the values as the % of phosphate precipitated out of solution, calculated as follows:
where • x=mmol phosphate in solution after precipitation; and • y=mmol phosphate in solution without precipitation.

[5] = Body weight and faecal hydration of rats fed binder in diet; conditions: rat, in vivo
Protocol: Total faecal samples from each animal were mixed to ensure a homogeneity and duplicate one gram aliquots weighed. The percentage hydration of the stool was calculated following freeze drying to constant weight.
Following feeding with the modified diets for 7 days, animals were transferred to metabowls for collection of total 24 hour faecal and urine excretion.

[6] = Phosphate binding in food, Method 3 (food slurry in 0.01 M HCl)
[7] = Phosphate binding capacity Method 2: as Method 1 but 20 mmol l^-1 phosphate buffer, increasing weight of compound
[8] = 3.2 mmol compound, 25 ml 20 mmol l^-1 phosphate buffer, 30 min, 25° C.

Row | Molecule | Total faecal phosphate [1] | Urine phosphate [1] [µmol] | increase in phosphate binding at pH 3 compared to pH 8 [2] [fold] | Percentage phosphate binding at pH 3 ([2]; pH 3) | Percentage phosphate binding at pH 5 ([2]; pH 5) | Percentage phosphate binding at pH 7 ([2]; pH 7) | Percentage phosphate binding at pH 8 ([2]; pH 8) | Serum aluminium [3] [µmol/L] | Serum calcium [3] | Serum iron [3] | Urine aluminium [3] [µg] | percentage phosphate binding capacity, pH 3 [4] [%] | percentage phosphate binding capacity, pH 7 [4] [%] | percentage phosphate binding capacity, pH 8 [4] [%] | mean weight gain [5] | faecal hydration compared to the controls [5] | also measured
1 | O=C([O-])[O-].[Ca+2] [CaCO3, calcium carbonate] | 213 ± 16 μmol g^−1 dry weight faeces | 857 ± 25 | 5.9 | 69% and 72% | 63% and 70% | 30% and 43% | 8% and 16% | 0.33 ± 0.05 | 2.93 ± 0.09 (n = 4)β mmol l^−1 | 41.9 ± 10.8 (n = 4) mmol l^−1 | 0.50 ± 0.21 | 15.3 ± 0.5 | 9.7 ± 1.8 | 2.4 ± 1.8 | 38-53 grams |  | 
2 | O.O.O=S(=O)([O-])[O-].[Ca+2] [CaSO4•2H2O, Calcium Sulphate Dihydrate] |  |  |  |  |  |  |  |  |  |  |  |  |  |  |  |  | Percentage phosphate bound at pH 3 ([2]; pH 3): 0%; Percentage phosphate bound at pH 5 ([2]; pH 5): 0%; Percentage phosphate bound at pH 7 ([2]; pH 7): 57%; Percentage phosphate bound at pH 8 ([2]; pH 8): 89%
3 | [Ce+3].[OH-].[OH-].[OH-] [Ce(OH)3] |  |  |  |  |  |  |  |  |  |  |  |  |  |  |  |  | percentage phosphate binding capacity, pH 3 [4, 8]: 69.8 ± 7.5%; percentage phosphate binding capacity, pH 7 [4, 8]: 57.8 ± 8.9%; percentage phosphate binding capacity, pH 8 [4, 8]: 60.5 ± 1.5%
4 | [Mg+2].[OH-].[OH-] [Mg(OH)2, magnesium hydroxide] | 183 ± 17 μmol g^−1 dry weight faeces | 65 ± 53 | 3.7 | 81% and 87% | 82% and 80% | 54% and 58% | 17% and 28% | 0.35 ± 0.08 | 2.58 ± 0.05 (n = 3) mmol l^−1 | 29.4 ± 7.9 (n = 3) mmol l^−1 | 0.17 ± 0.07 | 61.1 ± 7.5 | 45.7 ± 5.9 | 12.5 ± 3.7 | 38-53 grams | none of the animal groups treated with Mg(OH)2, CT 100 or CTFeMg showed an increase in faecal hydration compared to the controls | phosphate binding in food, comparison [6]: not the best when used in food; phosphate binding at pH 3, comparison [7]: best phosphate binder; urinary magnesium excretion, comparison between groups [3]: significantly higher than the control group or animals treated with any other binder
5 | Al2Mg6(OH)16CO3.4H2O [CT100] |  |  |  |  |  |  |  |  |  |  |  |  |  |  | 38-53 grams | none of the animal groups treated with Mg(OH)2, CT 100 or CTFeMg showed an increase in faecal hydration compared to the controls | 
